Data published in US20070026080A1, “Manufacturing process for tigecycline” (Wyeth, priority 2005, published 2007).

Assay: Strength and degradation profile of tigecycline 20 mg/mL bulk solutions by reversed phase HPLC (effect of temperature, time, pH, dissolved oxygen; Runs A to O)
Type: physicochemical
Settings: pH 7.7, Oxygen = 0.1 mg/L
Method: The contents of the sample vials are dissolved in diluent. The sample solution is diluted, if necessary, and chromatographed on a reversed phase column using gradient elution. Impurities are determined by comparing the impurity peak areas in the sample preparation chromatogram to the average area of tigecycline peaks in the standard preparation chromatograms obtained concomitantly.
Chromatographic Column—Length about 15 cm, inside diameter about 4.6 mm, packed with Inertsil ODS2, 5 μm size particles or equivalent.
Detector—Ultraviolet spectrophotometric detector capable of operating at 248 nm with a sensitivity of about 0.5 absorbance units full scale.
The results of additional studies to investigate the effect of processing parameters such as temperature, time, and dissolved oxygen content on the purity profile of tigecycline solutions using the following materials, methods and procedures are presented in Tables A to O.
The experiments were run in plastic glove bags under normal laboratory light conditions. Plastic glove boxes will be used to control the headspace of the beakers. The batch size was 200 mL. • 1. Prepare the glove bag with a mixture of nitrogen and air to achieve an oxygen level in the solution as per the design. • 2. Place the jacketed beaker on the magnetic stirrer. Connect it to the cooler. Set the cooler to the desired set point. • 3. Add 200 mL of SWFI in to the beaker. Allow equilibrating. Measure the temperature and oxygen content. When it reaches the desired condition, add accurately weighed API and mix until dissolved. If necessary use spatula to aid dissolution. For pH adjustments, use 4 mL of either 0.1N NaOH or 0.1N HCl and 196 mL of WFI for manufacture. • 4. After complete dissolution, Transfer about 5.5 mL of Solution in vials and stopper them. These vials will be stoppered at the appropriate headspace conditions. Place the vials in appropriate temperature conditions. • 5. Sample the vials at 1, 4, 8, 10, 12 and 24 hours. Send the samples for analysis. Freeze the 10, 12 and 24 samples at −20° C. for analysis the following day. • 6. Measure pH and record color of the solution at each time point. Results
The 1-hour samples were taken directly from the beakers. Samples for later time points were collected in stoppered vials processed in the atmosphere of the bag in order to simulate the headspace conditions then placed in water baths or refrigerator to maintain there respective temperature conditions. This was done to maintain safety in the lab. Disposable plastic glove bags require constant flow of a mixture of nitrogen and air to maintain headspace oxygen level that will result in the desired dissolved oxygen (DO) content in the sample. The pH of samples was measured at each sample points.
Strength and degradation profile was analyzed by HPLC as described above. […] Degradation was slightly higher at higher temperature condition.

## CN(C)c1cc(NC(=O)CNC(C)(C)C)c(O)c2c1C[C@H]1C[C@H]3[C@H](N(C)C)C(O)=C(C(N)=O)C(=O)[C@@]3(O)C(O)=C1C2=O [Tigecycline]
Run #L, 2° C., 12 Hrs
  RRT 1.45: 0.07%
  RRT 1.58: BRL (BRL means below reporting limit (meaning less than 0.05% of tigecycline peak))
  RRT 1.64 Mino: 0.14%
  RRT 1.67 MW = 556: BRL (BRL means below reporting limit (meaning less than 0.05% of tigecycline peak))
  RRT 1.85 MW = 597: 0.08%
  Strength: 19.448 mg/mL
  Total: 0.58%
Run #L, 2° C., 24 Hrs
  RRT 0.12 MW = 633: BRL (BRL means below reporting limit (meaning less than 0.05% of tigecycline peak))
  RRT 0.23 MW = 572: BRL (BRL means below reporting limit (meaning less than 0.05% of tigecycline peak))
  RRT 0.50 MW = 601: BRL (BRL means below reporting limit (meaning less than 0.05% of tigecycline peak))
  RRT 0.55 MW = 583: BRL (BRL means below reporting limit (meaning less than 0.05% of tigecycline peak))
  RRT 0.58: 0.09%
  RRT 0.64 9-Amino: BRL (BRL means below reporting limit (meaning less than 0.05% of tigecycline peak))
  RRT 0.74 Epimer: 0.21%
  RRT 0.76: BRL (BRL means below reporting limit (meaning less than 0.05% of tigecycline peak))
  RRT 0.78 MW = 557: BRL (BRL means below reporting limit (meaning less than 0.05% of tigecycline peak))
  RRT 1.12: BRL (BRL means below reporting limit (meaning less than 0.05% of tigecycline peak))
  RRT 1.45: 0.08%
  RRT 1.58: BRL (BRL means below reporting limit (meaning less than 0.05% of tigecycline peak))
  RRT 1.64 Mino: 0.13%
  RRT 1.67 MW = 556: BRL (BRL means below reporting limit (meaning less than 0.05% of tigecycline peak))
  RRT 1.85 MW = 597: 0.09%
  Strength: 19.156 mg/mL
  Total: 0.61%
Run #M, 8° C., 1 Hrs
  RRT 0.12 MW = 633: BRL (BRL means below reporting limit (meaning less than 0.05% of tigecycline peak))
  RRT 0.23 MW = 572: BRL (BRL means below reporting limit (meaning less than 0.05% of tigecycline peak))
  RRT 0.50 MW = 601: BRL (BRL means below reporting limit (meaning less than 0.05% of tigecycline peak))
  RRT 0.55 MW = 583: BRL (BRL means below reporting limit (meaning less than 0.05% of tigecycline peak))
  RRT 0.58: 0.08%
  RRT 0.64 9-Amino: BRL (BRL means below reporting limit (meaning less than 0.05% of tigecycline peak))
  RRT 0.74 Epimer: 0.20%
  RRT 0.76: 0.06%
  RRT 0.78 MW = 557: BRL (BRL means below reporting limit (meaning less than 0.05% of tigecycline peak))
  RRT 1.12: BRL (BRL means below reporting limit (meaning less than 0.05% of tigecycline peak))
  RRT 1.45: BRL (BRL means below reporting limit (meaning less than 0.05% of tigecycline peak))
  RRT 1.58: BRL (BRL means below reporting limit (meaning less than 0.05% of tigecycline peak))
  RRT 1.64 Mino: 0.14%
  RRT 1.67 MW = 556: BRL (BRL means below reporting limit (meaning less than 0.05% of tigecycline peak))
  RRT 1.85 MW = 597: BRL (BRL means below reporting limit (meaning less than 0.05% of tigecycline peak))
  Strength: 19.270 mg/mL
  Total: 0.47%
Run #M, 8° C., 4 Hrs
  RRT 0.12 MW = 633: BRL (BRL means below reporting limit (meaning less than 0.05% of tigecycline peak))
  RRT 0.23 MW = 572: BRL (BRL means below reporting limit (meaning less than 0.05% of tigecycline peak))
  RRT 0.50 MW = 601: BRL (BRL means below reporting limit (meaning less than 0.05% of tigecycline peak))
  RRT 0.55 MW = 583: BRL (BRL means below reporting limit (meaning less than 0.05% of tigecycline peak))
  RRT 0.58: 0.07%
  RRT 0.64 9-Amino: BRL (BRL means below reporting limit (meaning less than 0.05% of tigecycline peak))
  RRT 0.74 Epimer: 0.23%
  RRT 0.76: 0.06%
  RRT 0.78 MW = 557: BRL (BRL means below reporting limit (meaning less than 0.05% of tigecycline peak))
  RRT 1.12: BRL (BRL means below reporting limit (meaning less than 0.05% of tigecycline peak))
  RRT 1.45: 0.06%
  RRT 1.58: BRL (BRL means below reporting limit (meaning less than 0.05% of tigecycline peak))
  RRT 1.64 Mino: 0.08%
  RRT 1.67 MW = 556: BRL (BRL means below reporting limit (meaning less than 0.05% of tigecycline peak))
  RRT 1.85 MW = 597: 0.06%
  Strength: 19.340 mg/mL
  Total: 0.57%
Run #M, 8° C., 8 Hrs
  RRT 0.12 MW = 633: BRL (BRL means below reporting limit (meaning less than 0.05% of tigecycline peak))
  RRT 0.23 MW = 572: BRL (BRL means below reporting limit (meaning less than 0.05% of tigecycline peak))
  RRT 0.50 MW = 601: BRL (BRL means below reporting limit (meaning less than 0.05% of tigecycline peak))
  RRT 0.55 MW = 583: BRL (BRL means below reporting limit (meaning less than 0.05% of tigecycline peak))
  RRT 0.58: 0.08%
  RRT 0.64 9-Amino: BRL (BRL means below reporting limit (meaning less than 0.05% of tigecycline peak))
  RRT 0.74 Epimer: 0.24%
  RRT 0.76: 0.06%
  RRT 0.78 MW = 557: BRL (BRL means below reporting limit (meaning less than 0.05% of tigecycline peak))
  RRT 1.12: BRL (BRL means below reporting limit (meaning less than 0.05% of tigecycline peak))
  RRT 1.45: 0.07%
  RRT 1.58: BRL (BRL means below reporting limit (meaning less than 0.05% of tigecycline peak))
  RRT 1.64 Mino: 0.11%
  RRT 1.67 MW = 556: BRL (BRL means below reporting limit (meaning less than 0.05% of tigecycline peak))
  RRT 1.85 MW = 597: 0.06%
  Strength: 19.238 mg/mL
  Total: 0.62%
Run #M, 8° C., 10 Hrs
  RRT 0.12 MW = 633: BRL (BRL means below reporting limit (meaning less than 0.05% of tigecycline peak))
  RRT 0.23 MW = 572: BRL (BRL means below reporting limit (meaning less than 0.05% of tigecycline peak))
  RRT 0.50 MW = 601: BRL (BRL means below reporting limit (meaning less than 0.05% of tigecycline peak))
  RRT 0.55 MW = 583: 0.09%
  RRT 0.58: 0.07%
  RRT 0.64 9-Amino: BRL (BRL means below reporting limit (meaning less than 0.05% of tigecycline peak))
  RRT 0.74 Epimer: 0.25%
  RRT 0.76: 0.05%
  RRT 0.78 MW = 557: BRL (BRL means below reporting limit (meaning less than 0.05% of tigecycline peak))
